Measured values taken from EP4273147A1, “SUBSTITUTED SPIROLACTAMS, SALTS THEREOF AND THEIR USE AS HERBICIDALLY ACTIVE SUBSTANCES” (Bayer Aktiengesellschaft, priority 2022, dated 2023).

What was measured:
VERPE [1] = assay: Herbicidal pre-emergence action (Table A11); type: in vivo, Veronica persica; conditions: visual grading after ca. 3 weeks
Summary of the method: (§1)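 In each pot of sandy loam, seed of a single monocot weed species was sown alongside seed of a single dicot weed species, and the seed was covered with soil.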

ORYZA [2] = assay: Post-emergence effects on crop plants (Table F3); type: in vivo, Oryza sativa; conditions: crop plant ORYZA
Text: (§2) 2 to 3 weeks after sowing, the test plants were sprayed in the single-leaf stage.

ABUTH [3] = assay: Herbicidal post-emergence action (Table B1); type: in vivo, Abutilon theophrasti; conditions: application rate 320 g/ha; treated at one-leaf stage; rated visually after about 3 weeks vs untreated controls (100% = plants have died, 0% = like control plants)
Summary of the method: (§3)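 Visual rating against untreated plants (0% = as control, 100% = dead) made roughly 3 weeks after application. Weed species were grown in sandy loam pots under greenhouse conditions and sprayed at the one-leaf stage, 2–3 weeks post-sowing.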

SETVI [4] = assay: Herbicidal post-emergence action, section E (Table E8); type: in vivo, Setaria viridis; conditions: application rate 320 g/ha; assessed visually after ca. 3 weeks
Text: as §2

ECHCG [5] = assay: Herbicidal post-emergence action, section E (Table E5); type: in vivo, Echinochloa crus-galli; conditions: application rate 320 g/ha; assessed visually after ca. 3 weeks
Text: as §2

LOLRI [6] = assay: Herbicidal pre-emergence action (Table A3); type: in vivo, Lolium rigidum; conditions: application rate 320 g/ha, visual grading after ca. 3 weeks
Summary of the method: as §1

BRSNW = assay: Post-emergence effects on crop plants (Table F5); type: in vivo, Brassica napus; conditions: application rate 320 g/ha, crop plant BRSNW
Text: as §2

KCHSC [7] = assay: Herbicidal pre-emergence action (Table A10); type: in vivo, Kochia scoparia; conditions: visual grading after ca. 3 weeks
Summary of the method: as §1

STEME [8] = assay: Herbicidal post-emergence action (Table B9); type: in vivo, Stellaria media; conditions: application rate 1280 g/ha
Summary of the method: as §3

ECHCG [9] = assay: Herbicidal pre-emergence action, section C (Table C6); type: in vivo, Echinochloa crus-galli; conditions: application rate 80 g/ha; visual grading after ca. 3 weeks
VIOTR [10] = assay: Herbicidal pre-emergence action, section C (Table C12); type: in vivo, Viola tricolor; conditions: visual grading after ca. 3 weeks
Text: (§4) Seeds of mono- and dicotyledonous weed plants and crop plants were sown, in plastic or organic planting pots, in sandy loam and covered with soil. The compounds according to the invention, formulated in the form of wettable powders (WP) or as emulsifiable concentrates (EC), were applied to the surface of the covering soil as aqueous suspension or emulsion, with the addition of 0.5% of an additive, at an application rate of 600 1 of water/ha (converted). Following treatment, the pots were placed in a greenhouse and kept under optimum growth conditions for the test plants.

AMARE = assay: Herbicidal post-emergence action (Table B11); type: in vivo, Amaranthus retroflexus; conditions: application rate 1280 g/ha
Summary of the method: as §3

TRZAS [11] = assay: Post-emergence effects on crop plants (Table F2); type: in vivo, Triticum aestivum; conditions: crop plant TRZAS
Text: as §2

STEME [12] = assay: Herbicidal pre-emergence action (Table A6); type: in vivo, Stellaria media; conditions: visual grading after ca. 3 weeks
Summary of the method: as §1

VERPE [13] = assay: Herbicidal post-emergence action (Table B10); type: in vivo, Veronica persica; conditions: application rate 320 g/ha
Summary of the method: as §3

LOLRI [14] = assay: Herbicidal post-emergence action (Table B5); type: in vivo, Lolium rigidum; conditions: application rate 1280 g/ha; rated visually after about 3 weeks
Summary of the method: as §3

SETVI [15] = assay: Herbicidal pre-emergence action, section C (Table C10); type: in vivo, Setaria viridis; conditions: visual grading after ca. 3 weeks
ALOMY [16] = assay: Herbicidal pre-emergence action, section C (Table C2); type: in vivo, Alopecurus myosuroides; conditions: application rate 320 g/ha; visual grading after ca. 3 weeks
POAAN [17] = assay: Herbicidal post-emergence action (Table B7); type: in vivo, Poa annua
Summary of the method: as §3

ALOMY [18] = assay: Herbicidal pre-emergence action (Table A9); type: in vivo, Alopecurus myosuroides; conditions: application rate 1280 g/ha; visual grading after ca. 3 weeks
Summary of the method: as §1

LOLRI [19] = assay: Herbicidal pre-emergence action, section C (Table C7); type: in vivo, Lolium rigidum; conditions: application rate 320 g/ha; visual grading after ca. 3 weeks
ALOMY [20] = assay: Herbicidal post-emergence action, section E (Table E2); type: in vivo, Alopecurus myosuroides; conditions: application rate 320 g/ha; assessed visually after ca. 3 weeks
Text: as §2

ALOMY [21] = assay: Herbicidal post-emergence action (Table B2); type: in vivo, Alopecurus myosuroides; conditions: application rate 320 g/ha; rated visually after about 3 weeks
Summary of the method: as §3

MATIN [22] = assay: Herbicidal post-emergence action (Table B6); type: in vivo, Matricaria inodora; conditions: application rate 320 g/ha; rated visually after about 3 weeks
Summary of the method: as §3

ECHCG [23] = assay: Herbicidal pre-emergence action (Table A2); type: in vivo, Echinochloa crus-galli; conditions: application rate 320 g/ha; visual grading after ca. 3 weeks
Summary of the method: as §1

ABUTH [24] = assay: Herbicidal pre-emergence action (Table A1); type: in vivo, Abutilon theophrasti; conditions: application rate 1280 g/ha; visual grading after ca. 3 weeks vs untreated controls (100% = plants have died off, 0% = as control plants)
Summary of the method: as §1

VERPE [25] = assay: Herbicidal pre-emergence action, section C (Table C11); type: in vivo, Veronica persica; conditions: application rate 320 g/ha; visual grading after ca. 3 weeks
MATIN [26] = assay: Herbicidal pre-emergence action (Table A4); type: in vivo, Matricaria inodora; conditions: visual grading after ca. 3 weeks
Summary of the method: as §1

DIGSA [27] = assay: Herbicidal pre-emergence action (Table A12); type: in vivo, Digitaria sanguinalis; conditions: application rate 320 g/ha; visual grading after ca. 3 weeks
Summary of the method: as §1

DIGSA [28] = assay: Herbicidal pre-emergence action, section C (Table C5); type: in vivo, Digitaria sanguinalis; conditions: visual grading after ca. 3 weeks
MATIN [29] = assay: Herbicidal pre-emergence action, section C (Table C8); type: in vivo, Matricaria inodora; conditions: application rate 320 g/ha; visual grading after ca. 3 weeks
POAAN [30] = assay: Herbicidal pre-emergence action (Table A7); type: in vivo, Poa annua; conditions: application rate 320 g/ha, visual grading after ca. 3 weeks
Summary of the method: as §1

LOLRI [31] = assay: Herbicidal post-emergence action, section E (Table E6); type: in vivo, Lolium rigidum; conditions: application rate 320 g/ha; assessed visually after ca. 3 weeks
Text: as §2

ZEAMX [32] = assay: Post-emergence effects on crop plants (Table F1); type: in vivo, Zea mays; conditions: crop plant ZEAMX
Text: as §2

KCHSC [33] = assay: Herbicidal post-emergence action (Table B4); type: in vivo, Kochia scoparia; conditions: application rate 1280 g/ha; rated visually after about 3 weeks
Summary of the method: as §3

VERPE [34] = assay: Herbicidal post-emergence action, section E (Table E9); type: in vivo, Veronica persica; conditions: application rate 320 g/ha; assessed visually after ca. 3 weeks
Text: as §2

SETVI [35] = assay: Herbicidal post-emergence action (Table B8); type: in vivo, Setaria viridis; conditions: application rate 1280 g/ha
Summary of the method: as §3

SETVI [36] = assay: Herbicidal pre-emergence action (Table A5); type: in vivo, Setaria viridis; conditions: visual grading after ca. 3 weeks
Summary of the method: as §1

ABUTH [37] = assay: Herbicidal pre-emergence action, section C (Table C1); type: in vivo, Abutilon theophrasti; conditions: application rate 320 g/ha; visual grading after ca. 3 weeks
ZEAMX [38] = assay: Pre-emergence effects on crop plants (Table D1); type: in vivo, Zea mays; conditions: crop plant; application rate 80 g/ha; visual grading after ca. 3 weeks
ECHCG [39] = assay: Herbicidal post-emergence action (Table B3); type: in vivo, Echinochloa crus-galli; conditions: application rate 1280 g/ha; rated visually after about 3 weeks
Summary of the method: as §3

AVEFA = assay: Herbicidal pre-emergence action, section C (Table C4); type: in vivo, Avena fatua; conditions: application rate 320 g/ha; visual grading after ca. 3 weeks
Text: as §4

VIOTR [40] = assay: Herbicidal post-emergence action, section E (Table E10); type: in vivo, Viola tricolor; conditions: application rate 320 g/ha; assessed visually after ca. 3 weeks
Text: as §2

GLXMA = assay: Pre-emergence effects on crop plants (Table D4); type: in vivo, Glycine max; conditions: crop plant; application rate 80 g/ha; visual grading after ca. 3 weeks
ORYZA [41] = assay: Pre-emergence effects on crop plants (Table D3); conditions: crop plant; application rate 320 g/ha; visual grading after ca. 3 weeks
ABUTH [42] = assay: Herbicidal post-emergence action, section E (Table E1); type: in vivo, Abutilon theophrasti; conditions: application rate 320 g/ha; assessed visually after ca. 3 weeks
Text: as §2

TRZAS [43] = assay: Pre-emergence effects on crop plants (Table D2); type: in vivo, Triticum aestivum; conditions: crop plant; application rate 80 g/ha; visual grading after ca. 3 weeks

Compound: O=C1N(Cc2cccc(F)c2F)CCCC12CCCN(Cc1c(F)cccc1F)C2=O (racemic) [I-008, 8-[(2,3-difluorophenyl)methyl]-2-[(2,6-difluorophenyl)methyl]-2,8-diazaspiro[5.5]undecane-1,7-dione]
- pre-emergence activity against VERPE (VERPE [1]; application rate 320 g/ha): 90%
- post-emergence activity against ORYZA (ORYZA [2]; application rate 80 g/ha): 0%
- post-emergence activity against ABUTH (ABUTH [3]): 90%
- post-emergence activity against SETVI (SETVI [4]): 90%
- post-emergence activity against ECHCG (ECHCG [5]): 90%
- pest or weed control at 320 g/ha (LOLRI [6]; Lolium rigidum, pre-emergence, 504 h, read-out: pre-emergence activity against LOLRI): 100%
- post-emergence activity against BRSNW (BRSNW): 0%
- pre-emergence activity against KCHSC (KCHSC [7]; application rate 320 g/ha): 90%
- post-emergence activity against STEME (STEME [8]): 90%
- pre-emergence activity against ECHCG (ECHCG [9]): 100%
- pre-emergence activity against VIOTR (VIOTR [10]; application rate 320 g/ha): 80%
- post-emergence activity against AMARE (AMARE): 90%
- post-emergence activity against TRZAS (TRZAS [11]; application rate 80 g/ha): 0%
- pre-emergence activity against STEME (STEME [12]; application rate 320 g/ha): 90%
- post-emergence activity against VERPE (VERPE [13]): 90%
- post-emergence activity against LOLRI (LOLRI [14]): 100%
- pre-emergence activity against SETVI (SETVI [15]; application rate 80 g/ha): 100%
- pre-emergence activity against ALOMY (ALOMY [16]): 90%
- post-emergence activity against POAAN (POAAN [17]; application rate 320 g/ha): 90%
- pre-emergence activity against ALOMY (ALOMY [18]): 90%
- pre-emergence activity against LOLRI (LOLRI [19]): 90%
- post-emergence activity against ALOMY (ALOMY [20]): 90%
- post-emergence activity against ALOMY (ALOMY [21]): 90%
- post-emergence activity against MATIN (MATIN [22]): 90%
- pre-emergence activity against ECHCG (ECHCG [23]): 100%
- pre-emergence activity against ABUTH (ABUTH [24]): 90%
- pre-emergence activity against VERPE (VERPE [25]): 80%
- pre-emergence activity against MATIN (MATIN [26]; application rate 320 g/ha): 100%
- pre-emergence activity against DIGSA (DIGSA [27]): 100%
- pre-emergence activity against DIGSA (DIGSA [28]; application rate 80 g/ha): 100%
- pre-emergence activity against MATIN (MATIN [29]): 80%
- pest or weed control at 320 g/ha (POAAN [30]; Poa annua, pre-emergence, 504 h, read-out: pre-emergence activity against POAAN): 100%
- post-emergence activity against LOLRI (LOLRI [31]): 90%
- post-emergence activity against ZEAMX (ZEAMX [32]; application rate 320 g/ha): 0%
- post-emergence activity against KCHSC (KCHSC [33]): 90%
- post-emergence activity against VERPE (VERPE [34]): 80%
- post-emergence activity against SETVI (SETVI [35]): 90%
- pre-emergence activity against SETVI (SETVI [36]; application rate 320 g/ha): 100%

Compound: O=C1N(Cc2ccccc2Cl)CCCC12CCN(Cc1cccc(F)c1F)C2=O (racemic) [I-035]
- pre-emergence activity against ABUTH (ABUTH [37]): 80%
- pre-emergence activity against ZEAMX (ZEAMX [38]): 0%
- pre-emergence activity against VERPE (VERPE [1]; application rate 1280 g/ha): 90%
- post-emergence activity against ORYZA (ORYZA [2]; application rate 320 g/ha): 0%
- pre-emergence activity against LOLRI (LOLRI [6]): 100%
- pre-emergence activity against KCHSC (KCHSC [7]; application rate 1280 g/ha): 90%
- pre-emergence activity against ECHCG (ECHCG [9]): 100%
- pre-emergence activity against VIOTR (VIOTR [10]; application rate 80 g/ha): 90%
- post-emergence activity against TRZAS (TRZAS [11]; application rate 320 g/ha): 0%
- pre-emergence activity against STEME (STEME [12]; application rate 1280 g/ha): 90%
- post-emergence activity against ECHCG (ECHCG [39]): 90%
- pre-emergence activity against SETVI (SETVI [15]; application rate 320 g/ha): 100%
- pre-emergence activity against AVEFA (AVEFA): 100%
- pre-emergence activity against ALOMY (ALOMY [16]): 80%
- post-emergence activity against VIOTR (VIOTR [40]): 80%
- post-emergence activity against POAAN (POAAN [17]; application rate 1280 g/ha): 90%
- pre-emergence activity against GLXMA (GLXMA): 0%
- pre-emergence activity against ALOMY (ALOMY [18]): 90%
- pre-emergence activity against LOLRI (LOLRI [19]): 90%
- pre-emergence activity against ORYZA (ORYZA [41]): 0%
- pre-emergence activity against VERPE (VERPE [25]): 90%
- pre-emergence activity against MATIN (MATIN [26]; application rate 1280 g/ha): 90%
- pre-emergence activity against DIGSA (DIGSA [27]): 100%
- pre-emergence activity against DIGSA (DIGSA [28]; application rate 320 g/ha): 100%
- pre-emergence activity against POAAN (POAAN [30]): 100%
- post-emergence activity against ABUTH (ABUTH [42]): 90%
- post-emergence activity against ZEAMX (ZEAMX [32]; application rate 80 g/ha): 0%
- pre-emergence activity against TRZAS (TRZAS [43]): 0%
- post-emergence activity against VERPE (VERPE [34]): 80%
- pre-emergence activity against SETVI (SETVI [36]; application rate 1280 g/ha): 100%
